For series [1], the target named is T1, 42kDa cellular protein (RPN13) (Homo sapiens, UniProt Q16186).
T1 construct: endogenous in cells; host or cells: HeLa cell lysate
Nature of the series: Competition for RA190B binding in HeLa cell lysate. The note with it: HeLa lysate pre-treated with compound (5 μM) 45 min 4°C, then RA190B (20 μM). As for the experimental part: NEM (1 mM) used as positive control.

Series [2] has as its system panel of cancer cell lines. Nature of the series: MTT cytotoxicity, broad panel of cancer cell lines and normal cells (Fig 1B). The settings on record: 72 h.
Series [3] is described as follows: Plasma Protein Binding (equilibrium dialysis). The format is in vitro ADME, mouse. For orientation: Equilibrium dialysis compares concentrations on both sides of a semipermeable membrane.
Experimental: The assay was performed in a multiple-use 96-well dialysis unit (HTD96b dialyzer). Each individual well unit consisted of 2 chambers separated by a vertically aligned dialysis membrane of predetermined pore size (MWCO 12–14 kDa). 120 μL of non-diluted plasma spiked with the compound (1 μM, final DMSO concentration 1%) was added to one chamber, and the same volume of PBS buffer pH 7.4 to the other chamber. The HTD96b dialyzer was covered with adhesive sealing film and incubated 5 h at 37°C while shaking at 100 rpm. For sample preparation, an aliquot of the contents of each chamber was mixed with the same volume of the blank opposite matrix. In order to define non-specific loss of the compound during this assay, a standard solution was created by mixing an aliquot of spiked plasma with blank buffer without dialysis. Two aliquots of the standard solution were incubated at 37°C, shaking at 100 rpm for 5 h (recovery samples). The other two aliquots were immediately diluted with acetonitrile and stored at 4°C until analysis (stability samples). All samples were diluted 5-fold with internal standard diluted in 100% methanol with subsequent plasma proteins sedimentation by centrifuging at 6000 rpm for 5 minutes. Supernatants were analyzed using LC-MS/MS. The percentage of plasma protein bound compound, recovery and stability were calculated using following equations.
Proteinbinding={(1−(arearatioinbuffer)/(arearatioinplasma)}.100%
Recovery={(arearatioinbuffer+peakareainplasma)/arearatioinrecoverysample}.100%
Stability={arearatioinrecoverysample/arearatioinstabilitysample}.100%
In series [4] the test system is proteasome (4UbFL reporter). Nature of the series: In vivo 4UbFL proteasome reporter in electroporated leg muscle, CD1 mice. The arrangement: species or system mouse. As for the experimental part: A patch of CD1 mouse leg was shaved of hair and 10 μg 4Ub-FL plasmid in 20 μL of PBS was injected into the quadriceps femoralis muscle followed immediately by injection of the 2 Needle Array to 5 mm depth encompassing the injection site and square wave EP (ElectroSquarePorator 833, BTX-2 Needle array 5mm gap, Harvard apparatus) delivered as eight pulses at 106V for 20 ms with 200 ms intervals. One day post-EP, mice were anesthetized with isoflurane, injected IP with luciferin (0.3 mg in 100 μL water) and optical imaging was performed to determine basal level luciferase expression. Images were acquired for 10 min with a Xenogen IVIS 200 (Caliper, Hopkinton, MA). Equally sized areas were analyzed using Living Image 2.20 software.
Two days later, luciferin was injected IP and the baseline enzymic activity of luciferase in the transduced muscle tissue was visualized as bioluminescence within this region of interest (ROI) using an IVIS imager. […] After 4h, 24h and 48h the mice were again injected with luciferin, imaged and bioluminescence was quantified (Fig 5B).
A) ES2 cells stably transduced with the 4UbFL reporter plasmid were treated with compounds at indicated doses for 4 h. The cells were then washed, lysed and their luminescence measured by a luminometer after addition of luciferin. B) Female CD1 mice electroporated with 4UbFL plasmid in their leg muscle. After 48 h, the mice were injected with luciferin, imaged by IVIS for their basal bioluminescence and randomized into two groups of five. […] D) Up284 tissue distribution. […] Up284 levels in tissue samples were analyzed by HPLC. E) Up284 pharmacokinetics. […] Blood was collected at indicated time points thereafter and analyzed for Up284 levels by HPLC.

The target in series [5] is T2, RPN13 (Homo sapiens, UniProt Q16186).
T2 construct: endogenous in cells; host or cells: SKOV3 cells
Briefly: Cellular Thermal Shift Assay (CETSA), SKOV3 cells. In kind it is binding. The settings on record: SKOV3, 10 μM, 30 min, vs DMSO. As for the experimental part: Cells were incubated in a thermal cycler (Biorad IQ5 Cycler) over a gradient of temperatures for 4 min, followed by incubation at 25°C for 3 min, then snap-frozen in liquid nitrogen and subjected to three freeze–thaw cycles. Samples were briefly vortexed and centrifuged at 16,000 x g for 20 min at 4°C. Cleared cell lysates were resolved in SDS–PAGE followed by immunoblotting for RPN13, GAPDH, RPN2 and USP14.
Cellular Thermal Shift Assay (CETSA) assesses thermal stabilization of proteins upon ligand binding and is used extensively to detect drug interactions by implementing a thermal shift in the cellular context. The assay involves drug treatment of cells, heating to denature and precipitate proteins in a thermocycler with a specified gradient of temperatures, cell lysis by freeze/thaw cycles, and the separation of cell debris and aggregates from the soluble protein fraction by centrifugation. Whereas unbound proteins denature and precipitate at elevated temperatures, ligand-bound proteins remain in solution. The proportion of individual proteins remaining in solution can be detected by quantitative Western blotting. […]. There was no impact on other control proteins tested, including a house keeping protein (GAPDH) and proteasome subunits (RPN2 and USP14). […]
Resuspended cells were aliquoted into PCR strips. […]

The test system of series [6] is cellular DUB enzymes. Nature of the series: Total cellular DUB activity, Ub-AMC cleavage, SKOV3 cells. The settings on record: 5 μM, 1 h.
Series [7] has as its system peritoneal/ovarian tumor (shp53, AKT, c-Myc). Nature of the series: Spontaneous genetically-engineered mouse model (GEMM) of ovarian cancer. In kind it is in vivo. The settings on record: C57BL/6, 20mg/kg IP every 3 days for 6 weeks. As for the experimental part: To induce IP tumor formation in immunocompetent mice, oncogenes (shp53, AKT, c-Myc), luciferase and the Sleeping Beauty (SB) transposase (10 μg/plasmid) were diluted in 500 μL of PBS and injected IP into female C57BL/6 mice. The mice were anesthetized by intramuscular injection of ketamine. The plasmid-injected mice were electroporated (EP) by the BTX ECM 830 square wave EP generator (BTX) (5 pulses, 200 V for 100 ms/pulse, 100 ms intervals between each pulse), the caliper electrode (BTX) was held on the waist of mouse. The mice were followed by IVIS imaging weekly for tracking tumor growth. The mice were sacrificed when the bioluminescence signal reached 10^9 photons/sec/cm^2/sr, or had enlarged abdomens due to the production of ascites, or had health conditions and/or criteria under which early euthanasia was required by the protocol (see above). To track peritoneal tumor growth, bioluminescence imaging was performed by the IVIS spectrum2000 (PerkinElmer) as the plasmid expressing SB transposase also produces luciferase. Briefly, the mice were injected IP with D-luciferin (GoldBio). After 10 min, the mice were anesthetized with isoflurane, and imaged by the IVIS Spectrum under the auto exposure mode. Bioluminescence in the peritoneal region was quantified as total photon counts/sec/cm^2/sr using Living Image 3.0 Software (Perkin Elmer).
A-C) Female nude mice were inoculated IP with ES2-luc cells, a human ovarian cancer line expressing luciferase. […] The IP tumor tissue and electroporated normal muscle tissue, being spatially distinct, were identified with separate regions of interest (ROI) after simultaneous imaging with IVIS.
GEMM better mimic the spontaneous development of cancers in an immune competent host than transplantable tumor lines. Twenty female C57BL/6 mice were co-injected IP with sleeping beauty vector and plasmids expressing carrying shp53, AKT, c-Myc and firefly luciferase genes, followed by electroporation (EP) to deliver these plasmid DNA into the peritoneal cavity cells wherein they integrate randomly into their genome. […]

Setting [8] is: mouse plasma, 1.0 µM, individual incubations.

“And” between values parts separate entries of the source, which are not always exact repeats. Equal values may be shown once.

T1 sequence (Q16186 2-407): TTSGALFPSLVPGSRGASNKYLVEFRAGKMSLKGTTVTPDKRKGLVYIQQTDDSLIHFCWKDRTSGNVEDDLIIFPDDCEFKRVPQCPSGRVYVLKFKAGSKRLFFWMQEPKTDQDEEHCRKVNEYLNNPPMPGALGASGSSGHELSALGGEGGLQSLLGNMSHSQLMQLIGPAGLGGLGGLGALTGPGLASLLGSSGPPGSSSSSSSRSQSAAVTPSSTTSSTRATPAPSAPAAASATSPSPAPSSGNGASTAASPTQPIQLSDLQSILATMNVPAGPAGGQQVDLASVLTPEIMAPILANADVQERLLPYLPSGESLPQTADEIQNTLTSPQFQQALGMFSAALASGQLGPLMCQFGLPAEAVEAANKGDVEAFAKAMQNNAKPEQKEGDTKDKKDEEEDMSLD
T2 sequence (Q16186 whole entry): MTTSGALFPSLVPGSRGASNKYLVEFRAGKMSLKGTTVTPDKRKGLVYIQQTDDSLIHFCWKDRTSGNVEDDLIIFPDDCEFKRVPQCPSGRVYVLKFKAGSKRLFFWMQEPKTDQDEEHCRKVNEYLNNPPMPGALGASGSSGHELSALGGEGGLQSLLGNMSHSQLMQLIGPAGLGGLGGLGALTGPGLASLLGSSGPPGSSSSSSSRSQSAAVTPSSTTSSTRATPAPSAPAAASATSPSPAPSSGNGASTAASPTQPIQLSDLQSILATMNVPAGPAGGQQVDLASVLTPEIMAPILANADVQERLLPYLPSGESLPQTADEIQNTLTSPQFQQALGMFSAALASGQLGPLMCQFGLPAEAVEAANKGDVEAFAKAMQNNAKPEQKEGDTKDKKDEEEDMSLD

On to `N#Cc1ccc(/C=C2/C(=O)/C(=C/c3ccc(C#N)cc3)C23CCNCC3)cc1` [Up284], for which the “competition for RA190B binding to the 42KDa cellular protein” value in series [1] is “competed”. In series [2], the “cytotoxicity against normal cells” value is “relatively spared normal cells”; the “sensitivity of HCT116 cells regardless of Tp53 status” value was “similarly sensitive”; the “sensitivity of RPMI8226 and ANBL6 and bortezomib-resistant (-V10R) lines” value is “similarly very sensitive”. Moreover, in series [3] (mouse plasma, 1.0 µM), the “% of bound compound, mean” value is given as 98%. In addition, the “Stability, %” value in series [3] (mouse plasma, 1.0 µM, 5 h 37°C) is 109%. Also, in series [3] (setting [8]), the “% of bound compound” value was 98% and 97%; the “Recovery, %” value stood at 101%. Also, the recovery at 5 h, 1 µM in series [3] (mouse, non-diluted plasma, pH 7.4, mouse plasma, individual incubations) was 98%. Also, the “4UbFL reporter stabilization in muscle, PO” value in series [4] (Up284 PO once 40mg/kg vs ixazomib 10 mg/kg) was “better stabilized the reporter than ixazomib”. Moreover, in series [4] (single IP dose 40 mg/kg), the “duration of enhanced 4UbFL bioluminescence” value is given as more than 48 h. For the same compound, in series [4] (single IP dose 40 mg/kg, 4h, 24h and 48h), the “4UbFL bioluminescence in leg muscle” value is listed as “significantly enhanced bioluminescence levels”. Also, in series [5], the “thermal stabilization of RPN13” value is recorded as “stabilized”. In series [6], the “total lysate DUB enzymatic activity (Ub-AMC)” value is reported as “No reduction”. Moreover, the ascites entry in series [7] was “did not develop appreciable ascites”. Besides, the “GEMM tumor burden vs vehicle” value in series [7] (p = 0.002) is recorded as “significantly reduced tumor burden”. Also, in series [7] (p = 0.06), the survival vs vehicle result is “trend for prolonged survival”.

Values taken from PMC10266688 (PLOS ONE, 2023).
